Values after ≈ are worked out from the molar mass of the structure shown.
Legend:
P. aeruginosa [1] = assay: microbe, parasite or virus in culture; design: antibacterial MIC determination; conditions: Pseudomonas aeruginosa
Method: At this dose, NBD had no effect on the growth of P. aeruginosa, as shown by the fact that the growth curve of the bacteria in the presence of 5 μg/mL NBD was identical to the curve in the absence of the treatment (Figure S1).

E. coli = assay: microbe, parasite or virus in culture; design: antibacterial MIC determination; conditions: Escherichia coli
P. aeruginosa [2] = assay: microbe, parasite or virus in culture; design: crystal violet biofilm formation assay in 96-well plates, OD570; conditions: Pseudomonas aeruginosa, 24 h, read-out: % P. aeruginosa biofilm inhibition
Method: In 96-well polystyrene plates, the influence of NBD on biofilm growth was studied. The experiment was carried out in the manner reported by Stepanovi et al., with a few minor changes. P. aeruginosa cells were cultured in LB medium, vortexed, then diluted 1:100 in new LB media to a final concentration of 1.5 × 10^8 CFU/mL (0.5 McFarland) for biofilm development. Cells were then cultured for 24 h at 37 °C with or without NBD. Following that, non-adherent bacteria were washed away in sterile phosphate-buffered saline (PBS), and adherent bacteria were stained for 15 min with a 1% crystal violet solution. Water was used to clean the wells in order to remove any remaining stains. The absorbance of the crystal violet solution at OD570 was determined by spectrophotometric analysis. Wells with phosphate buffer-enriched media were utilized as negative controls. As a positive control, azithromycin (AZM) was used, which inhibits biofilm formation at sub-inhibitory concentrations. […] At this dose, NBD had no effect on the growth of P. aeruginosa, as shown by the fact that the growth curve of the bacteria in the presence of 5 μg/mL NBD was identical to the curve in the absence of the treatment (Figure S1).

[3] = target: the molecule itself; assay: AUC; sedimentation velocity, 141,900 x g, 20 °C, 20 mM Hepes pH 7.5, 100 mM NaCl; LasR 0.5 and 1 mg/mL produced with and in the presence of 100 μM OdDHL; c(S) and c(M) distributions in SEDFIT

O=c1oc2c(O)c(O)cc3c(=O)oc4c(O)c(O)cc1c4c23 [Ellagic acid]
MIC (P. aeruginosa [1]): 128 µg/mL (≈ 424 µM)
MIC (E. coli): 128 µg/mL (≈ 424 µM)
inhibition at 5 µg/mL (P. aeruginosa [2]): 22.8%

O=C(O)c1cc(O)c(O)c(O)c1 [Gallic acid]
MIC (P. aeruginosa [1]): > 256 µg/mL
MIC (E. coli): > 256 µg/mL
inhibition at 5 µg/mL (P. aeruginosa [2]): 21.4%

CCCCCc1cc(O)cc2c1Oc1cc(O)cc(C(=O)CCCC)c1C(=O)O2 [NBD, norlobaridone]
MIC (P. aeruginosa [1]): 128 µg/mL (≈ 321 µM)
MIC (E. coli): 128 µg/mL (≈ 321 µM)
inhibition at 5 µg/mL (P. aeruginosa [2]): 64.6%

O=C(O)c1ccc(O)cc1 [P-hydroxy benzoic acid]
MIC (P. aeruginosa [1]): 128 µg/mL (≈ 927 µM)
MIC (E. coli): > 256 µg/mL
inhibition at 5 µg/mL (P. aeruginosa [2]): 12.9%

CCCCCc1ccccc1O [Pentylphenol]
MIC (P. aeruginosa [1]): 256 µg/mL (≈ 1560 µM)
MIC (E. coli): > 256 µg/mL
inhibition at 5 µg/mL (P. aeruginosa [2]): 11.4%

Oc1cc(O)cc(O)c1 [Phloroglucinol]
MIC (P. aeruginosa [1]): 64 µg/mL (≈ 507 µM)
MIC (E. coli): 64 µg/mL (≈ 507 µM)
inhibition at 5 µg/mL (P. aeruginosa [2]): 31.1%

Oc1cccc(O)c1 [Resorcinol]
MIC (P. aeruginosa [1]): 128 µg/mL (≈ 1160 µM)
MIC (E. coli): 128 µg/mL (≈ 1160 µM)
inhibition at 5 µg/mL (P. aeruginosa [2]): 27.7%

CC(=O)c1c(O)c(C)c(O)c(Cc2c(O)c3c(c(C(=O)/C=C/c4ccccc4)c2O)OC(C)(C)C=C3)c1O [Rottlerin]
MIC (P. aeruginosa [1]): > 256 µg/mL
MIC (E. coli): > 256 µg/mL
inhibition at 5 µg/mL (P. aeruginosa [2]): 7.9%

B1: LasR (Pseudomonas aeruginosa transcriptional activator protein, LuxR-type quorum sensing receptor) (natural protein)
chain: MALVDGFLELERSSGKLEWSAILQKMASDLGFSKILFGLLPKDSQDYENAFIVGNYPAAWREHYDRAGYARVDPTVSHCTQSVLPIFWEPSIYQTRKQHEFFEEASAAGLVYGLTMPLHGARGELGALSLSVEAENRAEANRFMESVLPTLWMLKDYALQSGAGLAFEHPVSKPVVLTSREKEVLQWCAIGKTSWEISVICNCSEANVNFHMGNIRRKFGVTSRRVAAIMAVNLGLITL
notes: predicted molecular weight of the single chain 26.62 kD; Produced and kept with a small-molecule ligand: odDHL (dimer) or norlobaridone, NBD (monomer); also called LasR-odDHL; NBD-LasR; source: E. coli BL21 (pET23b, 1 mM IPTG, 18 °C overnight) in the presence of 100 μM OdDHL or 100 μM NBD; purified (heparin column, MonoQ, S200 size exclusion)
stoichiometry N [3]: 2
